Results taken from paper PMC11073612 (Nature structural & molecular biology, 2022).
“Also recorded” adds a separate entry of the source. Where no end group is shown, it is not given here.

Tests used:
SSTR2 ECL2 mutants = test: BRET assays comparing SST14 and SST28 at ECL2 mutants; assay type: cell-based; conditions: HEK-293S; for behavior of SST14 versus SST28 across ECL2 mutants: all of the mutants tested
[1] = tested on: SSTR2 R184 to proline mutant; test: BRET-based Gi3 activation assay, SSTR2 ECL2 mutant R184 to proline; assay type: cell-based; conditions: HEK-293S
SSTR3 = test: BRET-based Gi3 activation assay at SSTR3; assay type: cell-based; conditions: HEK-293S, 10 min after ligand, n=3 biological replicates
SSTR3 H192T = test: BRET-based Gi3 activation assay, SSTR3 H192T; assay type: cell-based; conditions: HEK-293S
[2] = tested on: SSTR2 ECL2+/4 (entire ECL2 from SSTR4); test: BRET-based Gi3 activation assay, SSTR2 ECL2+/4 chimera; assay type: cell-based; conditions: ECL2+/4 vs ECL2/4, HEK-293S, n=3
SSTR4 = test: BRET-based Gi3 activation assay at SSTR4; assay type: cell-based; conditions: HEK-293S, 10 min after ligand, n=3 biological replicates
SSTR5 = test: BRET-based Gi3 activation assay at SSTR5; assay type: cell-based; conditions: HEK-293S, 10 min after ligand, n=3 biological replicates
[3] = tested on: chimeric constructs of SSTR2 (ECL swaps); test: BRET-based Gi3 activation assay, SSTR2 ECL2/ECL3 chimeras; assay type: cell-based; conditions: HEK-293S, n=3; for ligand recognition, effect of ECL swaps: nearly all ECL2/ECL3 swaps
SSTR1 = test: BRET-based Gi3 activation assay at SSTR1; assay type: cell-based; conditions: HEK-293S, 10 min after ligand, n=3 biological replicates
[4] = tested on: SSTR2 R184 to alanine mutant; test: BRET-based Gi3 activation assay, SSTR2 ECL2 mutant R184 to alanine; assay type: cell-based; conditions: HEK-293S
SSTR2 = test: BRET-based G protein activation assay at SSTR2; assay type: cell-based; conditions: HEK-293S, 10 min after ligand, n=3 biological replicates
SSTR3 H192A = test: BRET-based Gi3 activation assay, SSTR3 H192A; assay type: cell-based; conditions: HEK-293S
SSTR1–5 = conditions: cited from earlier work
SSTR2 N276^6.55Q = test: BRET-based Gi3 activation assay, SSTR2 N276Q; assay type: cell-based; conditions: HEK-293S
SSTR2 Q187M = test: BRET-based Gi3 activation assay, SSTR2 Q187M; assay type: cell-based; conditions: HEK-293S, n=3 biological replicates
SSTR2 Q102^2.63S = test: BRET-based Gi3 activation assay, SSTR2 Q102S; assay type: cell-based; conditions: HEK-293S

| Substance | behavior of SST14 versus SST28 across ECL2 mutants (SSTR2 ECL2 mutants) | SSTR2 activation (effect of mutation) [1] | Gi3 BRET activation response (SSTR3) | SST14-stimulated G protein activation (effect of mutation) (SSTR3 H192T) | SST14-induced signaling compared to the shorter SSTR4 ECL2 swap [2] | Gi3 BRET activation response (SSTR4) | Gi3 BRET activation response (SSTR5) | impairment by ECL swaps, SST14 versus octreotide ([3]; ECL swaps) | ligand recognition, effect of ECL swaps [3] | Gi3 BRET activation response (SSTR1) | SSTR2 activation (effect of mutation) [4] | Gi3 BRET activation response (SSTR2) | SST14-stimulated G protein activation (effect of mutation) (SSTR3 H192A) | strength of SST28 relative to SST14 (SSTR2 ECL2 mutants; across all of the ECL2 mutants tested) | subtype selectivity (SSTR1–5) | octreotide signaling (effect of mutation) (SSTR2 N276^6.55Q) | octreotide signaling (effect of mutation) (SSTR2 Q187M) | octreotide-induced G protein signaling (effect of mutation) (SSTR2 Q102^2.63S) |
| --- | --- | --- | --- | --- | --- | --- | --- | --- | --- | --- | --- | --- | --- | --- | --- | --- | --- | --- |
| SST14: endogenous 14-residue somatostatin peptide (Cayman, 20809) | remarkably similar | substantially reduces SSTR2 activation | comparable response | deleterious to SST14-stimulated G protein activation | improved SST14-induced signaling | comparable response | comparable response | far greater impairment for SST14 than octreotide | impaired ligand recognition of SST14 and octreotide to some degree; also recorded: non-linear effect on SST14-induced signaling | comparable response | substantially reduces SSTR2 activation | comparable response | deleterious to SST14-stimulated G protein activation |  |  |  |  |  |
| SST28: 28-residue somatostatin peptide (SANSNPAMAPRERKAGCKNFFWKTFTSC; ends and bridges not checked; cysteine pairing not given here) | remarkably similar |  |  |  |  |  |  |  |  |  |  |  |  | slightly weaker binder than SST14 (less than an order of magnitude) |  |  |  |  |
| lanreotide |  |  |  |  |  |  |  |  |  |  |  |  |  |  | SSTR2-selective |  |  |  |
| octreotide |  | substantially reduces SSTR2 activation | reduced response |  |  | almost no activity | reduced response |  | impaired ligand recognition of SST14 and octreotide to some degree | almost no activity | substantially reduces SSTR2 activation | activates SSTR2 most potently |  |  |  | decreases octreotide signaling in a selective manner | enhances octreotide signaling | selectively reduces octreotide-induced G protein signaling |
